Data as given in patent US8106197B2, “Aminoheteroaryl compounds as protein kinase inhibitors” (Pfizer Inc., priority 2003, dated 2012).

What follows are compounds tested against T1, HGFR (Homo sapiens, UniProt P08581) (assay: HGFR continuous-coupled spectrophotometric assay). Details: not given.
T1 construct: purchased Upstate 14-526
T1 sequence (P08581 974-1390 limits assumed): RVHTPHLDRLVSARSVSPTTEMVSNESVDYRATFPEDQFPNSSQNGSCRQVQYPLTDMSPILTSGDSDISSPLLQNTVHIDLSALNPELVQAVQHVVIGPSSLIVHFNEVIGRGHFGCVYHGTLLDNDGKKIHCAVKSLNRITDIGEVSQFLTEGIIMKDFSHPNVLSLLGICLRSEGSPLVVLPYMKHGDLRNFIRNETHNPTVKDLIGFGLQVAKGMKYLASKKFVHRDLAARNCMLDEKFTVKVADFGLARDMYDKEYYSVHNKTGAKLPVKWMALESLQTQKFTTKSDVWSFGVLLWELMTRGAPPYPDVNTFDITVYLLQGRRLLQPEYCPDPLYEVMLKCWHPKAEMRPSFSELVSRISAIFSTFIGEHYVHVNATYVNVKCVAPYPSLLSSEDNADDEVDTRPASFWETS
Assay type: biochemical
`CN(C)CCNC(=O)c1ccc(COc2cc(-c3ccc(C(=O)N4CCC(N5CCCC5)CC4)cc3)cnc2N)cc1` was tested, and the “% inhibition” value was “% inhibition = 9”. `Nc1ncc(-c2ccc(C(=O)N3CCC(N4CCCC4)CC3)cc2)cc1OCc1cc(Cl)cc(Cl)c1` was tested, and the “% inhibition” value was “% inhibition = 19”. For `COc1ccccc1-c1nc(COc2cc(-c3ccc(C(=O)N4CCC(N5CCCC5)CC4)cc3)cnc2N)c(C)o1`, the “% inhibition” value was “% inhibition = 19”. In the case of `Nc1ncc(-c2ccc(C(=O)N3CCC(N4CCCC4)CC3)cc2)cc1OCc1ccc(F)c(F)c1`, the “% inhibition” value is reported as “% inhibition = 19”. `Cn1c(COc2cc(-c3ccc(C(=O)N4CCC(N5CCCC5)CC4)cc3)cnc2N)nc2ccccc21` was tested, and the “% inhibition” value was “% inhibition = 10”. For `Nc1ncc(-c2ccc(C(=O)N3CCC(N4CCCC4)CC3)cc2)cc1OCc1cncc2ccccc12`, the “% inhibition” value was “% inhibition = 9”. With `Cc1ccn2cc(COc3cc(-c4ccc(C(=O)N5CCC(N6CCCC6)CC5)cc4)cnc3N)nc2c1` the “% inhibition” value was “% inhibition = 18”. In the case of `COc1cc(COc2cc(-c3ccc(C(=O)N4CCC(N5CCCC5)CC4)cc3)cnc2N)cc(OC)c1`, the “% inhibition” value is reported as “% inhibition = 17”. For `Cc1nc2ccc(COc3cc(-c4ccc(C(=O)N5CCC(N6CCCC6)CC5)cc4)cnc3N)cc2c(=O)[nH]1`, the “% inhibition” value was “% inhibition = 12”. In the case of `Nc1ncc(-c2ccc(C(=O)N3CCC(N4CCCC4)CC3)cc2)cc1OCc1nc2ncccn2n1`, the “% inhibition” value is reported as “% inhibition = 19”. In the case of `N#Cc1nc(COc2cc(-c3ccc(C(=O)N4CCC(N5CCCC5)CC4)cc3)cnc2N)cnc1N`, the “% inhibition” value is reported as “% inhibition = 9”. `Nc1ncc(-c2ccc(C(=O)N3CCC(N4CCCC4)CC3)cc2)cc1OCc1cc(Cl)ccc1Cl` was tested, and the “% inhibition” value was “% inhibition = 26”. With `Nc1ncc(-c2ccc(C(=O)N3CCC(N4CCCC4)CC3)cc2)cc1OCc1nc(-c2ccccn2)no1` the “% inhibition” value was “% inhibition = 9”. In the case of `Nc1ncc(-c2ccc(C(=O)N3CCC(N4CCCC4)CC3)cc2)cc1OCc1cccc(C(=O)NC2CCN(Cc3ccccc3)CC2)c1`, the “% inhibition” value is reported as “% inhibition = 13”. For `Nc1ncc(-c2ccc(C(=O)N3CCC(N4CCCC4)CC3)cc2)cc1OCc1ncc(C(F)(F)F)cc1Cl`, the “% inhibition” value was “% inhibition = 8”. For `Nc1ncc(-c2ccc(C(=O)N3CCC(N4CCCC4)CC3)cc2)cc1OCc1ccc(S(=O)(=O)Nc2ccc(F)cc2)cc1`, the “% inhibition” value was “% inhibition = 15”. In the case of `Cc1cc(COc2cc(-c3ccc(C(=O)N4CCC(N5CCCC5)CC4)cc3)cnc2N)nc(-c2ccc(C(F)(F)F)cn2)n1`, the “% inhibition” value is reported as “% inhibition = 8”. For `Nc1ncc(-c2ccc(C(=O)N3CCC(N4CCCC4)CC3)cc2)cc1OCc1cc(F)cc2c1OCOC2`, the “% inhibition” value was “% inhibition = 21”. For `Nc1ncc(-c2ccc(C(=O)N3CCC(N4CCCC4)CC3)cc2)cc1OCc1nc(-c2cccc(C(=O)Nc3ccc(F)cc3)c2)no1`, the “% inhibition” value was “% inhibition = 64”. In the case of `Nc1ncc(-c2ccc(C(=O)N3CCC(N4CCCC4)CC3)cc2)cc1OCc1ccc(C(=O)NCc2cccnc2)cc1`, the “% inhibition” value is reported as “% inhibition = 15”. For `Nc1ncc(-c2ccc(C(=O)N3CCC(N4CCCC4)CC3)cc2)cc1OCc1cccc(Cl)c1Cl`, the “% inhibition” value was “% inhibition = 40”. `Cc1cnccc1COc1cc(-c2ccc(C(=O)N3CCC(N4CCCC4)CC3)cc2)cnc1N` was tested, and the “% inhibition” value was “% inhibition = 11”. With `Cc1nc(COc2cc(-c3ccc(C(=O)N4CCC(N5CCCC5)CC4)cc3)cnc2N)cs1` the “% inhibition” value was “% inhibition = 6”. With `Nc1ncc(-c2ccc(C(=O)N3CCC(N4CCCC4)CC3)cc2)cc1OCc1ccc(S(N)(=O)=O)cc1` the “% inhibition” value was “% inhibition = 17”. With `Nc1ncc(-c2ccc(C(=O)N3CCC(N4CCCC4)CC3)cc2)cc1OCc1ccc(Cl)cc1` the “% inhibition” value was “% inhibition = 15”. With `CC(C)(C)c1ccc(-c2noc(COc3cc(-c4ccc(C(=O)N5CCC(N6CCCC6)CC5)cc4)cnc3N)n2)cc1` the “% inhibition” value was “% inhibition = 36”. `Nc1ncc(-c2ccc(C(=O)N3CCC(N4CCCC4)CC3)cc2)cc1OCc1nc2ccc(Cl)cc2[nH]1` was tested, and the “% inhibition” value was “% inhibition = 16”. `Cc1ccc(COc2cc(-c3ccc(C(=O)N4CCC(N5CCCC5)CC4)cc3)cnc2N)cc1Cl` was tested, and the “% inhibition” value was “% inhibition = 26”. `Nc1ncc(-c2ccc(C(=O)N3CCC(N4CCCC4)CC3)cc2)cc1OCc1csc(-c2ccc(Cl)cc2)n1` was tested, and the “% inhibition” value was “% inhibition = 9”. For `COc1ccc(-c2nc(COc3cc(-c4ccc(C(=O)N5CCC(N6CCCC6)CC5)cc4)cnc3N)no2)cc1`, the “% inhibition” value was “% inhibition = 10”. With `Cc1nc2scc(COc3cc(-c4ccc(C(=O)N5CCC(N6CCCC6)CC5)cc4)cnc3N)c2c(=O)[nH]1` the “% inhibition” value was “% inhibition = 10”. `Nc1ncc(-c2ccc(C(=O)N3CCC(N4CCCC4)CC3)cc2)cc1OCc1cccc(CO)n1` was tested, and the “% inhibition” value was “% inhibition = 15”. `Cc1cc(COc2cc(-c3ccc(C(=O)N4CCC(N5CCCC5)CC4)cc3)cnc2N)ccc1F` was tested, and the “% inhibition” value was “% inhibition = 27”. With `Cc1cc(COc2cc(-c3ccc(C(=O)N4CCC(N5CCCC5)CC4)cc3)cnc2N)no1` the “% inhibition” value was “% inhibition = 16”. `Nc1ncc(-c2ccc(C(=O)N3CCC(N4CCCC4)CC3)cc2)cc1OCc1ccc(C(=O)NCCN2CCOCC2)cc1` was tested, and the “% inhibition” value was “% inhibition = 11”. With `CS(=O)(=O)c1ccc(COc2cc(-c3ccc(C(=O)N4CCC(N5CCCC5)CC4)cc3)cnc2N)cc1` the “% inhibition” value was “% inhibition = 11”. For `Nc1ncc(-c2ccc(C(=O)N3CCC(N4CCCC4)CC3)cc2)cc1OCc1ccc(F)c(F)c1F`, the “% inhibition” value was “% inhibition = 19”. With `Nc1ncc(-c2ccc(C(=O)N3CCC(N4CCCC4)CC3)cc2)cc1OCc1ccc(-c2csnn2)cc1` the “% inhibition” value was “% inhibition = 41”.

Same assay, conditions: Table 3; Ki(μM) or I(%); test concentration not given
In the case of `CCOc1ccccc1-c1cnc(N)c(OC(C)c2c(Cl)ccc(F)c2Cl)c1` (centres unmarked) [Example I-555, 3-[1-(2,6-Dichloro-3-fluoro-phenyl)-ethoxy]-5-(2-ethoxy-phenyl)-pyridin-2-ylamine], the “I(%)” value is reported as 22%. `Cc1cc(C)c(C)c(COc2cc(-c3ccc(C(=O)N4CCC(N5CCCC5)CC4)cc3)cnc2N)c1C` [Example I-654, {4-[6-Amino-5-(2,3,5,6-tetramethyl-benzyloxy)-pyridin-3-yl]-phenyl)-(4-pyrrolidin-1-yl-piperidin-1-yl)-methanone] was tested, and the “I(%)” value was 9%.

Same assay, conditions: Table 5; percent c-MET inhibition at 50 nM
Compound `CC(Oc1cc(-c2ccc(C(=O)N3CCCC(O)C3)cc2)cnc1N)c1c(Cl)ccc(F)c1Cl` (centres unmarked) has an inhibition at 0.05 µM of 85%. In the case of `CC(Oc1cc(-c2ccc(C(=O)NC[C@H](O)c3ccccc3)cc2)cnc1N)c1c(Cl)ccc(F)c1Cl` (some centres unmarked), the inhibition at 0.05 µM is reported as 69%. Compound `CC(Oc1cc(-c2ccc(C(=O)N3CCCC(CO)C3)cc2)cnc1N)c1c(Cl)ccc(F)c1Cl` (centres unmarked) has an inhibition at 0.05 µM of 84%. `Cc1noc([C@H]2CC[C@H](CNC(=O)c3ccc(-c4cnc(N)c(OC(C)c5c(Cl)ccc(F)c5Cl)c4)cc3)CC2)n1` (some centres unmarked) gave an inhibition at 0.05 µM of 51%. With `CC(Oc1cc(-c2ccc(C(=O)N[C@H](CO)c3ccccc3)cc2)cnc1N)c1c(Cl)ccc(F)c1Cl` (some centres unmarked) the inhibition at 0.05 µM was 69%. Work on `CC(=O)N(C)C1CCN(C(=O)c2ccc(-c3cnc(N)c(OC(C)c4c(Cl)ccc(F)c4Cl)c3)cc2)C1` (centres unmarked) yielded an inhibition at 0.05 µM of 70%. With `CC(Oc1cc(-c2ccc(C(=O)N[C@H]3C[C@@H]3c3ccccc3)cc2)cnc1N)c1c(Cl)ccc(F)c1Cl` (some centres unmarked) the inhibition at 0.05 µM was 65%.

Same assay, conditions: Table 6; percent c-MET inhibition at 1 μM; read-out: % inhibition
Work on `Nc1ncc(C(=O)N2CCN(c3ccccn3)CC2)cc1OCc1c(Cl)cccc1Cl` yielded an inhibition at 1 µM of 34%. Work on `Nc1ncc(C(=O)N2CCN(CCCO)CC2)cc1OCc1c(Cl)cccc1Cl` yielded an inhibition at 1 µM of 31%. `Nc1ncc(C(=O)NCCC2CCC(=O)N2CCc2ccc(O)cc2)cc1OCc1c(Cl)cccc1Cl` (centres unmarked) showed an inhibition at 1 µM of 16%. `Nc1ncc(C(=O)N2CCN(CC(=O)N3CCOCC3)CC2)cc1OCc1c(Cl)cccc1Cl` showed an inhibition at 1 µM of 31%. Compound `Nc1ncc(C(=O)NCC(O)CN2CCC(Cc3ccccc3)CC2)cc1OCc1c(Cl)cccc1Cl` (centres unmarked) has an inhibition at 1 µM of 32%. `Nc1ncc(C(=O)N2CCN(CC(=O)N3CCCCC3)CC2)cc1OCc1c(Cl)cccc1Cl` showed an inhibition at 1 µM of 24%. `Nc1ncc(C(=O)N2CCC(O)(CCc3ccncc3)CC2)cc1OCc1c(Cl)cccc1Cl` showed an inhibition at 1 µM of 25%. `Nc1ncc(C(=O)NCc2ccccc2Br)cc1OCc1c(Cl)cccc1Cl` showed an inhibition at 1 µM of 36%. With `Nc1ncc(C(=O)NCc2c(F)cccc2C(F)(F)F)cc1OCc1c(Cl)cccc1Cl` the inhibition at 1 µM was 33%. `Nc1ncc(C(=O)N2CCC3(CC2)CC3C(=O)NCC2CC2)cc1OCc1c(Cl)cccc1Cl` (centres unmarked) showed an inhibition at 1 µM of 32%. `Nc1ncc(C(=O)NCCc2ccccc2F)cc1OCc1c(Cl)cccc1Cl` gave an inhibition at 1 µM of 33%. Work on `CN(C)C(=O)CN1CCN(C(=O)c2cnc(N)c(OCc3c(Cl)cccc3Cl)c2)CC1` yielded an inhibition at 1 µM of 42%. `Nc1ncc(C(=O)NCc2ccc(S(N)(=O)=O)cc2)cc1OCc1c(Cl)cccc1Cl` gave an inhibition at 1 µM of 30%. `Nc1ncc(C(=O)NC2CCN(Cc3ccccc3)C2)cc1OCc1c(Cl)cccc1Cl` (centres unmarked) gave an inhibition at 1 µM of 27%. In the case of `COc1ccc(CNC(=O)c2cnc(N)c(OCc3c(Cl)cccc3Cl)c2)c(OC)c1`, the inhibition at 1 µM is reported as 59%. With `Nc1ncc(C(=O)NCC(O)c2ccc(O)cc2)cc1OCc1c(Cl)cccc1Cl` (centres unmarked) the inhibition at 1 µM was 29%. For `CN(CCC(O)c1ccccc1)C(=O)c1cnc(N)c(OCc2c(Cl)cccc2Cl)c1` (centres unmarked), the inhibition at 1 µM was 28%. With `Nc1ncc(C(=O)N2CCC3(CCNC3=O)CC2)cc1OCc1c(Cl)cccc1Cl` the inhibition at 1 µM was 27%. With `Nc1ncc(C(=O)N2CCCN(Cc3ccc(F)cc3)CC2)cc1OCc1c(Cl)cccc1Cl` the inhibition at 1 µM was 26%. With `CCCN(CCO)C1CCCN(C(=O)c2cnc(N)c(OCc3c(Cl)cccc3Cl)c2)CC1` (centres unmarked) the inhibition at 1 µM was 17%. `Nc1ncc(C(=O)NCCOc2ccccc2)cc1OCc1c(Cl)cccc1Cl` gave an inhibition at 1 µM of 66%. `CC(C)NC(=O)CN1CCN(C(=O)c2cnc(N)c(OCc3c(Cl)cccc3Cl)c2)CC1` was tested, and the inhibition at 1 µM was 30%. Compound `Nc1ncc(C(=O)N2CCn3c(CO)nnc3C2)cc1OCc1c(Cl)cccc1Cl` has an inhibition at 1 µM of 31%. `Nc1ncc(C(=O)NC(CO)Cc2ccc(Cl)cc2)cc1OCc1c(Cl)cccc1Cl` (centres unmarked) was tested, and the inhibition at 1 µM was 27%. `Nc1ncc(C(=O)N2CCCC2c2ccncc2)cc1OCc1c(Cl)cccc1Cl` (centres unmarked) was tested, and the inhibition at 1 µM was 19%. For `CN1CCN(CCCNC(=O)c2cnc(N)c(OCc3c(Cl)cccc3Cl)c2)CC1`, the inhibition at 1 µM was 24%. With `CCCC(CO)NC(=O)c1cnc(N)c(OCc2c(Cl)cccc2Cl)c1` (centres unmarked) the inhibition at 1 µM was 30%. `CS(=O)(=O)C1CCN(C(=O)c2cnc(N)c(OCc3c(Cl)cccc3Cl)c2)C1` (centres unmarked) gave an inhibition at 1 µM of 23%. Work on `COc1ccc(C(NC(=O)c2cnc(N)c(OCc3c(Cl)cccc3Cl)c2)C2CC2)cc1` (centres unmarked) yielded an inhibition at 1 µM of 27%. `CC(=O)N(C)C1CCN(C(=O)c2cnc(N)c(OCc3c(Cl)cccc3Cl)c2)C1` (centres unmarked) showed an inhibition at 1 µM of 31%.
